The values that follow come from ChEMBL document CHEMBL3774368, “1,2,4-Triazolyl octahydropyrrolo[2,3-b]pyrroles: A new series of potent and selective dopamine D3 receptor antagonists” (Bioorg Med Chem, 2016).

One assay addresses D(3) dopamine receptor (Homo sapiens, UniProt P35462). Put plainly: Displacement of [3H]-spiperone from human dopamine D3 receptor expressed in CHO-K1 cell membranes after 90 mins by liquid scintillation counter method. For orientation: In a radioligand displacement assay an active substance lowers the binding of a labelled ligand.
The target of the next assay is D(2) dopamine receptor (Homo sapiens, UniProt P14416). Put plainly: Displacement of [3H]-spiperone from human dopamine D2 receptor expressed in CHO-K1 cell membranes after 120 mins by liquid scintillation counter method.
D(2) dopamine receptor, sequence (P14416 whole entry): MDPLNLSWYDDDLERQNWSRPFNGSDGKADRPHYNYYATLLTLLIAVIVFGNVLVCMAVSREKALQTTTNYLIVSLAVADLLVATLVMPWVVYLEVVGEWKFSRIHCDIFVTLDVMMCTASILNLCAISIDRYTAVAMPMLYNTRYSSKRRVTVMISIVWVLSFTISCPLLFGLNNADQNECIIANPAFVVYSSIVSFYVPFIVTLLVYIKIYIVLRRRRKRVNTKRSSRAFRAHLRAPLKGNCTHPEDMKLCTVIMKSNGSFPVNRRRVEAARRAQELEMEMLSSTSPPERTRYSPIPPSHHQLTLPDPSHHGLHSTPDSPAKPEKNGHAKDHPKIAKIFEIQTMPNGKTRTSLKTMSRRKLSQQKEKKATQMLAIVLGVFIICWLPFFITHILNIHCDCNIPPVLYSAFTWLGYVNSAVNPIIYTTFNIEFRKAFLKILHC
Assay [1] addresses Voltage-gated inwardly rectifying potassium channel KCNH2 (Homo sapiens, UniProt Q12809). Put plainly: Inhibition of human ERG tail current expressed in HEK293 cells after 5 mins by patch clamp assay. Background: Patch clamp records ionic current or voltage across a cell membrane.

Voltage-gated inwardly rectifying potassium channel KCNH2, sequence (Q12809 whole entry): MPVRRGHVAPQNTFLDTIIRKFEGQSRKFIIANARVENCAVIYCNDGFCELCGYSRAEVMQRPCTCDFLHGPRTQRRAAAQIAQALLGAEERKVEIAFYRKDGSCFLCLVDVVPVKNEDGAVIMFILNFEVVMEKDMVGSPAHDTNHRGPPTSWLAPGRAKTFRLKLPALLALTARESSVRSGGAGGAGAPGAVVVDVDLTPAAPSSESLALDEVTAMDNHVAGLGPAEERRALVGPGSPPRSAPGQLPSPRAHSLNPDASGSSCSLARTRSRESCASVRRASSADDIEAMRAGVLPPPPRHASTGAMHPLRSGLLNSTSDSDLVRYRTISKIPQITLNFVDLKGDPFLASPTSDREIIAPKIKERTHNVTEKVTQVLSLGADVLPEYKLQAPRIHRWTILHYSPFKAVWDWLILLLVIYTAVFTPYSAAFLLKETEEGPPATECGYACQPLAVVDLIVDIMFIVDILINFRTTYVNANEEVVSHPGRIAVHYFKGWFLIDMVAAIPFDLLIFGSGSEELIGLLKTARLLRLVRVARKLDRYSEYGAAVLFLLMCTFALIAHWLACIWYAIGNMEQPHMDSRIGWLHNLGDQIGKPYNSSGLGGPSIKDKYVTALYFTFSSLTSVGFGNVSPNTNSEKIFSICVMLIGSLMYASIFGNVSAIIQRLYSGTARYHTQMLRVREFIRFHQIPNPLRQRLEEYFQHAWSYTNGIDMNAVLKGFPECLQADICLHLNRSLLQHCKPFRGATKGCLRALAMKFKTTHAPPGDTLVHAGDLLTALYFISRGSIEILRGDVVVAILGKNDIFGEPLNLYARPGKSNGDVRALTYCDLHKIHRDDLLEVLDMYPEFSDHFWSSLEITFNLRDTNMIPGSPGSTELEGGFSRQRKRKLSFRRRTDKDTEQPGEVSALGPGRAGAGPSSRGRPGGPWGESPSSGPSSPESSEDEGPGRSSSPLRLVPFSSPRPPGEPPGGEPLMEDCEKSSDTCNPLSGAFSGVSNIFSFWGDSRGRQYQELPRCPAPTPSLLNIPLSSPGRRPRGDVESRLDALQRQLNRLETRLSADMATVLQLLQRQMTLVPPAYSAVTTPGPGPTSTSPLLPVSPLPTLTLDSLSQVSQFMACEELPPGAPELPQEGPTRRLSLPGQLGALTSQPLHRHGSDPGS
D(3) dopamine receptor, sequence (P35462 whole entry): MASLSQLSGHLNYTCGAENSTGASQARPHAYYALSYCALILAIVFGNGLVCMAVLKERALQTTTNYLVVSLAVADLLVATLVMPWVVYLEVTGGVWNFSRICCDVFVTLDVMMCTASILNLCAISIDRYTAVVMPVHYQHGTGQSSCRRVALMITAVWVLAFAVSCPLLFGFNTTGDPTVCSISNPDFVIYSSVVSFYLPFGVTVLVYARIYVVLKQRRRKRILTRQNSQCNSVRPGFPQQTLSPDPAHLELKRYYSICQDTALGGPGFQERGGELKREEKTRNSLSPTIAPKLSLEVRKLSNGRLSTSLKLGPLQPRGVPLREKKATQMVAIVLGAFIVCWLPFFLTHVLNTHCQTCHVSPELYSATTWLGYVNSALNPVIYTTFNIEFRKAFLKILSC

For the compound `Cn1c(SCCCN2CC3CCN(c4ccc(C(F)(F)F)cc4)C3C2)nnc1-c1cc[nH]c(=O)c1` (racemic), the Ki on D(3) dopamine receptor was 0.00794 µM; on D(2) dopamine receptor, 0.631 µM. In assay [1], it took 1.26 µM to reach half-maximal inhibition (IC50).

For the compound `Cn1c(SCCCN2CC3CCN(c4cccc(C(F)(F)F)c4)C3C2)nnc1-c1cnccn1` (racemic), the Ki is 0.0002 µM on D(3) dopamine receptor and 0.0316 µM on D(2) dopamine receptor. Regarding `Cn1c(SCCCN2CC3CCN(c4ccc(F)cc4)C3C2)nnc1C1CCCCC1` (racemic), the values for the inhibition constant Ki at D(3) dopamine receptor and on D(2) dopamine receptor were 0.0126 µM and 0.794 µM, respectively. `Cn1c(SCCCN2CC3CCN(c4ccc(C(F)(F)F)cc4)C3C2)nnc1C1CCCC1` (racemic) showed a Ki at D(3) dopamine receptor of 0.000398 µM. Take `Cn1c(SCCCN2CC3CCN(c4ccc(C(F)(F)F)cc4)C3C2)nnc1C1CCCCC1` (racemic): the inhibitory constant (Ki) is 0.0398 µM at D(3) dopamine receptor and 6.31 µM on D(2) dopamine receptor. For `Cn1c(SCCCN2CC3CCN(c4ccc(C(F)(F)F)cc4)C3C2)nnc1-c1ccncc1` (racemic), in that order: 0.002 µM and 0.398 µM. Consider `Cc1ncoc1-c1nnc(SCCCN2CC3CN(c4ccc(C(F)(F)F)cc4)C3C2)n1C` (racemic), for which, at D(3) dopamine receptor, the Ki is 0.0398 µM. Besides, the IC50 in assay [1] is 0.631 µM.

Regarding `Cn1c(SCCCN2CC3CCN(c4c(F)cc(F)cc4F)C3C2)nnc1-c1cnccn1` (racemic), the Ki at D(3) dopamine receptor is 0.001 µM; at D(2) dopamine receptor, 0.631 µM. Consider `Cn1c(SCCCN2CC3CCN(c4ccc(C(F)(F)F)cc4)C3C2)nnc1-c1ccnnc1` (racemic), for which the Ki was 0.0126 µM on D(3) dopamine receptor and 0.631 µM on D(2) dopamine receptor. Regarding `Cc1ncoc1-c1nnc(SCCCN2CC3CCN(c4ccc(C(F)(F)F)cc4)C3C2)n1C` (racemic), the Ki at D(3) dopamine receptor was 0.00158 µM. As for `Cn1c(SCCCN2CC3CCN(c4ccc(F)cc4)C3C2)nnc1-c1ccn(C)c(=O)c1` (racemic), the Ki at D(3) dopamine receptor is 0.00794 µM; on D(2) dopamine receptor it was 0.398 µM. As for `Cc1ncoc1-c1nnc(SCCCN2CC3CCN(c4ccc(F)cc4)C3C2)n1C` (racemic), the Ki at D(2) dopamine receptor was 0.2 µM. With `Cn1c(SCCCN2CC3CCN(c4ccc(F)cc4F)C3C2)nnc1-c1cnccn1` (racemic), the inhibitory constant (Ki) on D(3) dopamine receptor was 0.01 µM; at D(2) dopamine receptor, 0.398 µM. `Cn1c(SCCCN2CC3CCN(c4ccccc4)C3C2)nnc1C1CCOCC1` (racemic): the Ki on D(3) dopamine receptor is 0.0126 µM. Consider `Cn1c(SCCCN2CC3CCN(c4ccc(C(F)(F)F)cc4)C3C2)nnc1-c1ccc(=O)n(C)c1` (racemic), for which the Ki on D(3) dopamine receptor is 0.00631 µM.

For `Cn1c(SCCCN2CC3CCN(c4cccc(F)c4)C3C2)nnc1-c1cnccn1` (racemic), the Ki was 0.00501 µM at D(3) dopamine receptor and 0.251 µM at D(2) dopamine receptor. The compound `Cn1c(SCCCN2CC3CCN(c4cccc(OC(F)(F)F)c4)C3C2)nnc1-c1cnccn1` (racemic) showed a Ki on D(3) dopamine receptor of 0.000316 µM. The same measure, in the same setting: the figure for `Cn1c(SCCCN2CC3CCN(c4ccc(F)cc4C(F)(F)F)C3C2)nnc1-c1cnccn1` (racemic) is 0.0251 µM. `Cc1ccccc1N1CCC2CN(CCCSc3nnc(-c4cnccn4)n3C)CC21` (racemic) gave an inhibition constant (Ki) on D(3) dopamine receptor of 0.126 µM. With `Cn1c(SCCCN2CC3CCN(c4ccc(F)cc4)C3C2)nnc1-c1cnccn1` (racemic), the inhibitory constant (Ki) at D(3) dopamine receptor is 0.002 µM; on D(2) dopamine receptor it was 0.2 µM.

With `Cn1c(SCCCN2CC3CCN(c4ccc(F)cc4)C3C2)nnc1-c1cc[nH]c(=O)c1` (racemic), on D(2) dopamine receptor, the Ki is 0.631 µM.

In the case of `Cn1cc(-c2nnc(SCCCN3CC4CCN(c5ccc(C(F)(F)F)cc5)C4C3)n2C)cn1` (racemic), on D(2) dopamine receptor, the affinity, expressed as Ki, was 0.2 µM. For `Cc1ccc(N2CCC3CN(CCCSc4nnc(-c5cnccn5)n4C)CC32)cc1` (racemic), the Ki is 0.00794 µM at D(3) dopamine receptor and 0.631 µM on D(2) dopamine receptor. For `Cn1c(SCCCN2CC3CCN(c4ccc(C#N)cc4)C3C2)nnc1-c1cnccn1` (racemic), in that order: 0.126 µM and 6.31 µM.

In turn, `Cn1c(SCCCN2CC3CCN(c4ccccc4C(F)(F)F)C3C2)nnc1-c1cccnc1` (racemic) gave an inhibitory constant (Ki) on D(2) dopamine receptor of 0.794 µM. Turning to `Cn1c(SCCCN2CC3CCN(c4ccccc4C(F)(F)F)C3C2)nnc1-c1ccncc1` (racemic), the Ki at D(3) dopamine receptor was 0.00501 µM; on D(2) dopamine receptor, 0.251 µM. For `Cn1c(SCCCN2CC3CCN(c4ccc(C(F)(F)F)cc4)C3C2)nnc1N1CCOCC1` (racemic), on D(2) dopamine receptor, the inhibition constant (Ki) was 0.2 µM.

On to `Cn1c(SCCCN2CC3CCN(c4ccc(OC(F)(F)F)cc4)C3C2)nnc1-c1cnccn1` (racemic), for which the Ki at D(3) dopamine receptor is 0.0126 µM; at D(2) dopamine receptor it was 0.316 µM. Consider `Cc1ncoc1-c1nnc(SCCCN2CC3CCN(c4ccc(OC(F)(F)F)cc4)C3C2)n1C` (racemic), for which the Ki at D(2) dopamine receptor is 0.631 µM. In the case of `Cn1c(SCCCN2CC3CCN(c4ccccc4C(F)(F)F)C3C2)nnc1-c1ccccn1` (racemic), the Ki at D(3) dopamine receptor is 0.00501 µM; on D(2) dopamine receptor, 0.316 µM. Turning to `Cc1cc(-c2nnc(SCCCN3CC4CCN(c5ccc(C(F)(F)F)cc5)C4C3)n2C)on1` (racemic), the results for the Ki at D(3) dopamine receptor and on D(2) dopamine receptor were 0.00251 µM and 0.158 µM, respectively. Consider `Cc1ncoc1-c1nnc(SCCCN2CC3CCN(c4cccc(C#N)c4)C3C2)n1C` (racemic), for which the Ki on D(2) dopamine receptor is 0.0501 µM. Still for that read-out and setting: the figure for `Cn1c(SCCCN2CC3CCN(c4ccc(C(F)(F)F)cc4)C3C2)nnc1-c1ccccn1` (racemic) is 0.398 µM.

For `Cn1c(SCCCN2CC3CCN(c4ccc(C(F)(F)F)cc4)C3C2)nnc1-c1cncnc1` (racemic), the results for the Ki at D(3) dopamine receptor and on D(2) dopamine receptor were 0.0501 µM and 1.26 µM, respectively.

Regarding `Cn1c(SCCCN2CC3CCN(c4ccc(C(F)(F)F)cc4)C3C2)nnc1-c1cccnn1` (racemic), the Ki on D(3) dopamine receptor was 0.0501 µM; on D(2) dopamine receptor, 0.316 µM. Compound `Cc1ncoc1-c1nnc(SCCCN2CC3CCN(c4ccccc4)C3C2)n1C` (racemic) showed a Ki at D(2) dopamine receptor of 0.251 µM. In the case of `Cc1ncoc1-c1nnc(SCCCN2CC3OCCN(c4ccc(C(F)(F)F)cc4)C3C2)n1C` (racemic), the Ki on D(3) dopamine receptor was 0.0316 µM. On to `CC(C)Oc1ccccc1N1CCC2CN(CCCSc3nnc(-c4cnccn4)n3C)CC21` (racemic), for which the Ki at D(3) dopamine receptor was 0.01 µM; on D(2) dopamine receptor, 0.251 µM. As for `Cn1c(SCCCN2CC3CCN(c4ccc(C(F)(F)F)cc4)C3C2)nnc1-c1cccnc1` (racemic), the Ki on D(3) dopamine receptor is 0.00316 µM. As for `COc1ccccc1N1CCC2CN(CCCSc3nnc(-c4cnccn4)n3C)CC21` (racemic), the Ki was 0.0158 µM on D(3) dopamine receptor and 0.316 µM on D(2) dopamine receptor. Regarding `Cn1c(SCCCN2CC3CCN(c4ccccc4C#N)C3C2)nnc1-c1cnccn1` (racemic), the figures for the Ki on D(3) dopamine receptor and at D(2) dopamine receptor were 0.00631 µM and 0.2 µM, respectively. The matching figures for `Cn1c(SCCCN2CC3CCN(c4cccc(C#N)c4)C3C2)nnc1-c1cnccn1` (racemic): 0.002 µM and 0.1 µM.

For `Cn1c(SCCCN2CC3CCN(c4ccc(C(F)(F)F)cc4)C3C2)nnc1-c1ccc(=O)[nH]c1` (racemic), the Ki was 0.00398 µM at D(3) dopamine receptor and 0.398 µM on D(2) dopamine receptor. The compound further gave a 50% inhibitory concentration (IC50) in assay [1] of 1 µM.

On to `COc1cc(N2CCC3CN(CCCSc4nnc(-c5cnccn5)n4C)CC32)ccc1F` (racemic), for which the Ki at D(3) dopamine receptor was 0.00316 µM; on D(2) dopamine receptor, 0.501 µM. For the compound `Cn1c(SCCCN2CC3CCN(c4c(F)cccc4F)C3C2)nnc1-c1cnccn1` (racemic), the Ki at D(2) dopamine receptor was 0.631 µM.

The compound `Cc1cccc(N2CCC3CN(CCCSc4nnc(-c5cnccn5)n4C)CC32)c1` (racemic) gave a Ki at D(3) dopamine receptor of 0.00398 µM.

On to `Cc1ncoc1-c1nnc(SCCCN2CC3CCN(c4ccccc4OC(F)(F)F)C3C2)n1C` (racemic), for which the figures for the inhibitory constant (Ki) on D(3) dopamine receptor and at D(2) dopamine receptor were 0.001 µM and 0.02 µM, respectively. Regarding `Cn1c(SCCCN2CC3CCN(c4c(F)cccc4C(F)(F)F)C3C2)nnc1-c1cnccn1` (racemic), the Ki on D(3) dopamine receptor is 0.00398 µM; at D(2) dopamine receptor, 0.398 µM. At D(3) dopamine receptor, `Cc1ncoc1-c1nnc(SCCCN2CC3CCCN(c4ccc(C(F)(F)F)cc4)C3C2)n1C` (racemic) had a Ki of 0.0126 µM. The same measure, in the same setting: the figure for `Cc1ncoc1-c1nnc(SCCCN2CC3CCN(c4c(F)cccc4F)C3C2)n1C` (racemic) is 0.00251 µM. At D(2) dopamine receptor, `Cc1ncoc1-c1nnc(SCCCN2CC3CCN(c4ccccc4)C3C2)n1C` (stereo in doubt; 6a) gave a Ki of 0.398 µM. In addition, half-maximal inhibition in assay [1] (IC50) was put at 1.58 µM. `Cc1ncoc1-c1nnc(SCCCN2CC3CCN(c4ccc(C(F)(F)F)cc4)C3C2)n1C` (stereo in doubt; 7a) had a Ki on D(3) dopamine receptor of 0.002 µM. Regarding `Cc1ncoc1-c1nnc(SCCCN2CC3CCN(c4ccc(C(F)(F)F)cc4)C3C2)n1C` (stereo in doubt; 7b), the Ki at D(3) dopamine receptor is 0.00316 µM. `Cc1ncoc1-c1nnc(SCCCN2CC3CCN(c4ccc(F)cc4)C3C2)n1C` (stereo in doubt; 9b) had an inhibitory constant (Ki) on D(2) dopamine receptor of 0.2 µM. The same measure, in the same setting: the same measure for `Cn1c(SCCCN2CC3CCN(c4ccc(C(F)(F)F)cc4)C3C2)nnc1-c1cnccn1` (stereo in doubt; 17a): 0.501 µM.

Regarding `CC(C)Oc1ccccc1N1CCC2CN(CCCSc3nnc(-c4cnccn4)n3C)CC21` (stereo in doubt; 35a), the values for the Ki on D(3) dopamine receptor and at D(2) dopamine receptor were 0.0631 µM and 5.01 µM, respectively. For `Cn1c(SCCCN2CC3CCN(c4ccc(F)cc4F)C3C2)nnc1-c1cnccn1` (stereo in doubt; 36a), in that order: 0.01 µM and 1 µM. In turn, `Cn1c(SCCCN2CC3CCN(c4ccccc4C(F)(F)F)C3C2)nnc1-c1cccnc1` (stereo in doubt; 52b) had a Ki on D(2) dopamine receptor of 1.26 µM. As to `Cn1c(SCCCN2CC3CCN(c4ccc(C(F)(F)F)cc4)C3C2)nnc1-c1cc[nH]c(=O)c1` (stereo in doubt; 55a), the Ki was 0.0158 µM on D(3) dopamine receptor and 2 µM at D(2) dopamine receptor. `Cn1c(SCCCN2CC3CCN(c4ccc(C(F)(F)F)cc4)C3C2)nnc1N1CCOCC1` (stereo in doubt; 61a) gave an inhibitory constant (Ki) at D(3) dopamine receptor of 0.00316 µM. For `Cn1c(SCCCN2CC3CCN(c4ccc(C(F)(F)F)cc4)C3C2)nnc1N1CCOCC1` (stereo in doubt; 61b), the Ki is 0.002 µM on D(3) dopamine receptor and 0.2 µM at D(2) dopamine receptor. `Cn1c(SCCCN2CC3CCN(c4ccccc4)C3C2)nnc1C1CCOCC1` (stereo in doubt; 62b) had a Ki at D(3) dopamine receptor of 0.0251 µM. Regarding `Cn1c(SCCCN2CC3CCN(c4ccc(C(F)(F)F)cc4)C3C2)nnc1C1CCCC1` (stereo in doubt; 64a), the affinity on D(3) dopamine receptor, expressed as Ki, was 0.0002 µM. Same read-out and setting: the same measure for `Cn1c(SCCCN2CC3CCN(c4ccc(C(F)(F)F)cc4)C3C2)nnc1C1CCCCC1` (stereo in doubt; 65a): 0.0126 µM.

Broadly, the Ki is a dissociation constant, usually derived from enzyme kinetics or from competition with a known ligand. Higher therefore signals a looser hold on the target. What is called IC50 is the midpoint of a concentration-inhibition curve.
